Assay results published in paper PMC6344527, “Toxicity and possible mechanisms of action of honokiol from Magnolia denudata seeds against four mosquito species” (Scientific Reports, 2019).

Legend:
AeCS1 mRNA = assay: real-time qRT-PCR of target gene expression; type: in vivo, Aedes aegypti; details: compared to control larvae; midgut; honokiol 6.5 mg/L or magnolol 25 mg/L, 24 h
Experimental: (§1) Real-time qRT-PCR with SYBR Green dye was performed to determine whether honokiol and magnolol treatment affected the expression levels of three target genes, AaAQP4, AaV-type H^+-ATPase and AeCS1, in Ae. aegypti. […] Total RNA was extracted from the anal gills (for AaAQP4 and AaV-type H^+-ATPase) and midgut (for AeCS1) of 50 larvae using an RNeasy Mini Kit (Qiagen, Valencia, CA, USA) according to the manufacturer’s instructions. Residual genomic DNA was removed using RQ1 RNase-Free DNase (Promega, Fitchburg, WI, USA), and 1 μg of total RNA from each sample was used for complementary DNA (cDNA) synthesis with an oligo(dT) primer (Invitrogen, Grand Island, NY, USA) according to the protocol of the SuperScript III Reverse Transcriptase Kit. Real-time qRT-PCR was performed in 96-well plates using the StepOne Plus Real-Time PCR System (Applied Biosystems, Foster, CA, USA). Each reaction mixture consisted of 10 μL of the SYBR Green PCR Master Mix Kit (Applied Biosystems, Warrington, Cheshire, UK), 2 μL of the forward and reverse primers (10 pmol each), 1 μL of cDNA (25 ng) and diethylpyrocarbonate-treated water for a final volume of 20 μL. The oligonucleotide PCR primer pairs are listed in Table 9 and were purchased from Cosmo Genetech (Seoul). The cycling program included an initial hold at 95 °C for 5 min, followed by 35 cycles at 95 °C for 30 s, at 58 °C for 30 s, at 72 °C for 1 min, and an extension at 72 °C for 5 min using an Applied Bioscience Thermal Cycler. The mRNA expression levels of the target genes were normalized to the mRNA expression level of the housekeeping gene Aarps7 and analyzed by the 2^−ΔΔCT method using the Applied Biosystems StepOne Software v2.1 and DataAssist Software. The results are expressed as the means ± SEs of duplicate samples from three independent experiments.

AaV-type H^+-ATPase mRNA = assay: real-time qRT-PCR of target gene expression; type: in vivo, Aedes aegypti; details: fold higher than the control group; anal gills; honokiol 6.5 mg/L or magnolol 25 mg/L, 24 h
Experimental: as §1

AaAQP4 mRNA = assay: real-time qRT-PCR of target gene expression; type: in vivo, Aedes aegypti; details: fold higher than the control group; anal gills; honokiol 6.5 mg/L or magnolol 25 mg/L, 24 h
Experimental: as §1

[1] = system: third-instar Ae. aegypti larvae; assay: light microscopy analysis of treated larvae; type: in vivo, Aedes aegypti; details: honokiol 6.5 mg/L or magnolol 25 mg/L (LC50), 24 h
Experimental: At 24 h post-treatment, the untreated and treated larvae were placed on a microscope slide at room temperature for light microscopy. Morphological observations were made with an EZ4 HD stereo microscope (35×) equipped with an Integrated 3.0 Mega-Pixel CMOS camera (Leica Microsystems, Heerbrugg, Switzerland). All experiments were performed in duplicate, with 20 mosquito larvae used in each replicate. More than 10 live larvae from the control and treated groups were randomly collected and used for analysis.

[2] = system: midgut regions of third-instar Ae. aegypti larvae; assay: histologic analysis by Carson's trichrome staining; type: in vivo, Aedes aegypti; details: honokiol 6.5 mg/L or magnolol 25 mg/L (LC50), 24 h
Experimental: At 24 h post-treatment, Ae. aegypti larvae untreated and treated with honokiol or magnolol were immediately fixed in Bouin’s fluid[75] at 4 °C for 24 h. Larvae were then dehydrated in an ethanol-tetrahydrofuran-xylene series and embedded in Paraplast X-tra (Sigma-Aldrich). The embedded preparations of the larvae were sectioned at a 5 μm thickness using a Microm HM 340E rotary microtome (Thermo Scientific, Walldorf, Germany). The sections were dried at 40 °C overnight, subsequently deparaffinized with CitriSolv (Fisher Scientific, Fair Lawn, NJ, USA), and rehydrated with a series of ethanol in phosphate-buffered saline (PBS) solutions[30]. The rehydrated sections were stained in Weigert’s iron hematoxylin for 30 s, followed by Carson’s trichrome staining procedure. This staining protocol stained the columnar and goblet cells of the midgut blue and red, respectively. These sections were then dehydrated, cleared in xylene, and mounted in EMS Permount (Electron Microscopy Sciences, Hatfield, PA, USA). Images were observed and captured using a DMIL LED microscope (Leica Microsystems, Wetzlar, Germany) equipped with a Leica MC 170 HD. Observations were taken of 15 larvae under the microscope.

[3] = biological target: acetylcholinesterase (AChE) from third-instar Ae. aegypti larvae (Aedes aegypti, UniProt A4GND7); assay: acetylcholinesterase inhibition assay; type: biochemical; details: based on IC50 values
Experimental: The in vitro AChE inhibitory activity of the test compounds was assessed according to the method of Perumalsamy et al.[42]. Third-instar Ae. aegypti larvae were used in all experiments. Whole bodies of 50 larvae were homogenized in 1 mL of ice-cold 0.1 M phosphate buffer (pH 8.0) using a glass tissue homogenizer. After filtering through cheesecloth, the homogenate was centrifuged at 1,000 × g at 4 °C for 5 min. The supernatant was used directly as the enzyme source for AChE. The protein levels were determined using the Bradford Protein Assay Kit (Bio-Rad Laboratories, Hercules, CA, USA) using BSA as the standard. The reaction mixture consisted of 50 µL of the crude enzyme preparation (4.3–4.8 µg protein equivalents), 150 µL of 0.1 M phosphate buffer, 20 µL of 3 mM DTNB in phosphate buffer (pH 7.0), and 1 µL of various concentrations of each test compound in ethanol. The reaction mixture was incubated at 30 °C for 5 min, and 20 µL of 32 mM ATChI was then added to the mixture. After incubation for 30 min, the reaction was terminated by adding 20 µL of 5 mM eserine salicylate. Absorbance was recorded at 412 nm using a VersaMax microplate reader (Molecular Devices, Sunnyvale, CA, USA). […] The results are expressed as the means ± standard errors (SEs) of triplicate samples from three independent experiments.
The concentration of the test compounds required to produce 50% AChE inhibitory activity (IC50) was determined using the SAS 9.13 program (Cary: SAS Institute; 2014). Concentration-mortality data were subjected to probit analysis using the SAS 9.13 program. […] Statistical analyses were performed using the SAS 9.13 program. Multiple linear regression and correlation analysis were performed using the SPSS 24 program (Armonk: IBM Corp.; 2016).

acetylcholinesterase (AChE) from third-instar Ae. aegypti larvae, sequence (A4GND7 37-679): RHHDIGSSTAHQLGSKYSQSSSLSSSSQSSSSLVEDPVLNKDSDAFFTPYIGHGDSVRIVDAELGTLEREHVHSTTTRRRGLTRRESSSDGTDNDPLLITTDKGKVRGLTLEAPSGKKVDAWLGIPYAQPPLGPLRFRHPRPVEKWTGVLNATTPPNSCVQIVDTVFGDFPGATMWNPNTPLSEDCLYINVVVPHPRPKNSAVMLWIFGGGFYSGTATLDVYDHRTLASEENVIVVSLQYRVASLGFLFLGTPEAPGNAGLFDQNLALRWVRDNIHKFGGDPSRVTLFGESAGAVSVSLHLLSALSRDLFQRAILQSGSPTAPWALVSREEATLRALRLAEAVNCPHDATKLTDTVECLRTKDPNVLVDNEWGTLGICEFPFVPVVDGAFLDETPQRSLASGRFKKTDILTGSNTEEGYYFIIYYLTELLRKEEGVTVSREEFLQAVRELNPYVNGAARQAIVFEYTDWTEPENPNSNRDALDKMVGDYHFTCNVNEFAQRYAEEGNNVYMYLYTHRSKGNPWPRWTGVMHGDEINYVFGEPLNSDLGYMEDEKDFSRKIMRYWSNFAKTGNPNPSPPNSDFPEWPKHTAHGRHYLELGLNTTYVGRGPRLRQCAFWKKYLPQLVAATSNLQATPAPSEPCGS

`C=CCc1ccc(O)c(-c2ccc(O)c(CC=C)c2)c1` [Honokiol, 2-(4-hydroxy-3-prop-2-enyl-phenyl)-4-prop-2-enyl-phenol] was tested, and the “AeCS1 mRNA levels” value (AeCS1 mRNA) was 82%, the “AaV-type H^+-ATPase mRNA expression levels” value (AaV-type H^+-ATPase mRNA) was “approximately 16 fold” and the “AaAQP4 mRNA expression levels” value (AaAQP4 mRNA) was “approximately 18 fold”. For the same compound, the “anal gill region (light microscopy)” value [1] was “the anal gill from one side was swollen and reduced from its normal length, and the other one was completely damaged”, the “morphology of the whole body (light microscopy)” value [1] was “severely damaged, with an indistinct appearance of the thorax, midgut, and abdominal regions” and the “histology of midgut region (Carson's staining)” value [2] was “indistinct damaged midgut epithelial layers”. For the same compound, the “AChE inhibitory activity (in words)” value [3] was “moderately”.
In the case of `C=CCc1ccc(O)c(-c2cc(CC=C)ccc2O)c1` [Magnolol, magnolol], the “AeCS1 mRNA levels” value (AeCS1 mRNA) is reported as “up to 503%”, the “AaV-type H^+-ATPase mRNA expression levels” value (AaV-type H^+-ATPase mRNA) is reported as roughly 14 fold and the “AaAQP4 mRNA expression levels” value (AaAQP4 mRNA) is reported as “did not affect”. The “anal gill region (light microscopy)” value [1] was “completely damaged outer cuticle membranes with undistinguishable anal gills with no internal body fluid”, the “morphology of the whole body (light microscopy)” value [1] was “shrunken body with no distinct abdominal segments” and the “histology of midgut region (Carson's staining)” value [2] was “indistinct midgut epithelial layers and PMs”. For the same compound, the “AChE inhibitory activity (in words)” value [3] was “strongly”.
